US7892767B2, “Phosphospecific chemokine receptor antibodies” (Washington University in St. Louis, priority 2005, dated 2011)

What was measured:
[1] = system: Nf1+/+ astrocytes; assay: Cell cycle analysis by flow cytometry, Nf1+/+ astrocytes; assay type: cell-based, mouse; conditions: CXCL12 0.1 μg/ml
Description: Cell Cycle Analysis. Ethanol fixed cells were washed in PBS and resuspended in PI staining solution containing 0.1% Triton-X-100, 0.2 mg/ml RNase A, and 20 ug/ml Propidium Iodide in PBS. The cells were incubated for 15 minutes at 37° C., in the dark. Flow Cytometry was performed on a FACSCalibur system (Becton Dickinson, San Jose, Calif.) Data were analyzed using CellQuest software (Becton Dickinson, San Jose, Calif.). Aggregates and debris were excluded from the analysis.
The basis for the in vitro growth effects of CXCL12 was further evaluated by cell cycle analysis of asynchronously growing cultures of Nf1+/+ and Nf1−/− astrocytes in the presence and absence of CXCL12. In agreement with measurements of cell number, 15% more Nf1−/− astrocytes were in the S+G2M fraction of the cell cycle compared to Nf1+/+ astrocytes (P<0.005, data not shown). This decrease in Nf1+/+ cell number in response to CXCL12 was the result of both a 6% decrease in proliferation (S+G2-M) and a 38+/−8% increase in apoptosis (sub-G0). The increase in Nf1−/− cell number was the result of a 27+/−12% decline in apoptosis alone (FIG. 9C).

[2] = system: Nf1−/− astrocytes; assay: Intracellular cAMP by ELISA, Nf1−/− astrocytes; assay type: cell-based, mouse
Description: (§1) cAMP measurements. cAMP was measured by ELISA (Cayman Chemical Company, Ann Arbor, Mich. or Assay Designs, Ann Arbor, Mich.). Briefly, astrocyte cultures were lysed in 0.1 N HCl. After the removal of cellular debris, soluble cellular extract was dried down and resuspended in EIA buffer. Experimental samples and cAMP standard curve were acetylated to increase the sensitivity of the assay and incubated with cAMP ACHe tracer and cAMP EIA anti-serum overnight at 4° C. according to the manufacturer's instructions. After extensive washing, bound antibody was measured by spectrophotometric analysis. Concentrations of cAMP were derived from comparison with standard curve according to manufacturer's instructions.
(§2) We evaluated the time dependent changes in intracellular cAMP in Nf1+/+ and Nf1−/− astrocytes after exposure to 0.1 μg/ml CXCL12. […] However, in Nf1+/+ astrocytes, intracellular levels of cAMP rapidly recovered to baseline and oscillated between baseline and 40% of baseline over the 45-minute experimental period (FIG. 10B).
(§3) We hypothesized that if cooperative signaling between Nf1 loss and CXCR4 activation promotes tumor formation through the suppression of cAMP, then agents that alter intracellular cAMP should modulate CXCL12 responses. We treated astrocytes with the adenylyl cyclase (AC) activator forskolin in the presence and absence of CXCL12. […] In these experiments, forskolin elevated intracellular cAMP levels in both Nf1+/+ and Nf1−/− astrocytes with peak values of 17.8+/−0.4 and 19.4+/−4.5 pmol/mg of protein, respectively, after 24 hours of treatment. The effect of forskolin was not abrogated by co-treatment with CXCL12. Under these conditions, cAMP levels were 17.9+/−2.5 and 10.4+/−5.8 pmol/mg of total protein in Nf1+/+ and Nf1−/− astrocytes, respectively. […] The effect of forskolin on CXCL12-mediated Nf1−/− apoptosis was evidenced by changes in the percentage of Nf1−/− astrocytes in the sub-G0 fraction of the cell cycle (FIG. 11B). Thus while astrocyte growth is dependent upon MEK and PI3 kinase activity, CXCL12-induced Nf1−/− astrocyte growth requires the suppression of intracellular cAMP levels.

[3] = system: Nf1+/+ astrocytes; assay: Intracellular cAMP by ELISA, Nf1+/+ astrocytes; assay type: cell-based, mouse; conditions: 0.1 μg/ml CXCL12, 45-minute period
Description: as §1, §2, §3

[4] = target: T1, CXCR4 (Mus musculus, UniProt P70658); assay: CXCL12-induced CXCR4 phosphorylation (pCXCR4 western blot), wild-type (Nf1+/+) astrocytes; assay type: cell-based; conditions: CXCL12 0.1 μg/ml, at 5 minutes
T1 construct: endogenous in cells; host or cells: primary mouse astrocytes (Nf1 flox/flox, infected with Ad-LacZ or Ad-Cre)
T1 sequence (P70658 whole entry): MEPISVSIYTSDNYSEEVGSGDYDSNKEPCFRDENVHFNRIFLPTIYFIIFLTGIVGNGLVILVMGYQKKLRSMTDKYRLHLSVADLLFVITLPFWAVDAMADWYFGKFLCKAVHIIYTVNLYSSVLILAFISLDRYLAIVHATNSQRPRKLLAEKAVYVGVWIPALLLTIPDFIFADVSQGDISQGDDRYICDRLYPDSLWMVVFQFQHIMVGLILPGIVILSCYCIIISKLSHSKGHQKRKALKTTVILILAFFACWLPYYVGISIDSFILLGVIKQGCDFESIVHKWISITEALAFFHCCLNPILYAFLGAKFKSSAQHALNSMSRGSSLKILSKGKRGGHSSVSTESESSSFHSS
Description: Western Blot Analysis. Whole-cell extracts were obtained by lysing cells with lysis buffer (20 mM Tris pH 7.4, 137 mM NaCl, 10% Glycerol and 1% Triton-X-100) supplemented with phosphatase inhibitor cocktail set II (Calbiochem, La Jolla, Calif.), PMSF (1 mM), leupeptin, (0.005 mg/ml) and aprotinin (0.005 mg/ml). The proteins were resolved with 10% Bis-Tris gels (Invitrogen) and transferred onto the nitrocellulose membrane Hybond ECL (Amersham, Piscataway, N.J.) according to standard protocols. Membranes were incubated with polyclonal antibodies CXCR4 (1:500), pErk½ (1:1200), pan Erk½ (1:150), pAkt (1:500), pan Akt (1:1000), pGRK2 (1:250), and pCXCR4 (1:200) overnight at 4° C. This was followed by incubation with horseradish peroxidase-conjugated secondary antibody (1:15,000; Bio-Rad). Peroxide activity was detected using the enhanced chemiluminescence Supersignal West Dura system (Pierce, Rockford, Ill.) Mouse anti-actin antibody was used as a loading control. Quantitation of western blots was performed by densitometry using Image J software from the NIH.
Among the primary mechanisms for controlling GPCR effects on cAMP production is receptor desensitization (140). This process is initiated when ligand occupied GPCR (e.g., CXCR4) is phosphorylated by G protein receptor kinase (GRK). […]

[5] = system: U87 glioblastoma cells; assay: Intracellular cAMP by ELISA, U87 glioblastoma cells; assay type: cell-based, human; conditions: 1 μg/ml CXCL12
Description: Growth factor and drug treatment. Following serum-starvation for 24 hours, astrocytes, granule cells, U87 cells and Daoy cells, were treated with 1 μg/ml CXCL12 (PeproTech), […] AMD3465 (kind gift from Simon Fricker, AnorMED, Langley, BC, Canada) (200 μM Rolipram (Sigma), or 10 μM Forskolin (Sigma) as indicated.
cAMP measurement in cell culture. cAMP concentration was measured using a Correlated-EIA™. Enzyme Immunoassay Kit (Assay Designs Inc. MI) according to the manufacturer's instructions. Briefly, U87 or Daoy cells were serum-starved for 24 hours, and treated with CXCL12 (1 μg/ml), Rolipram (200 μM), or forskolin (10 μM). Cells were lysed in 0.1M HCL and particulate matter was removed by centrifugation at >600×g for 10 min. The supernatants were dried down and resuspended in assay buffer.
Determination of cAMP concentration. Competitive immunoassay for cAMP concentration was performed exactly as directed by the manufacturer. Absorbance at 405 nm was measured and cAMP concentrations were determined by calculation based on a standard curve. Protein concentrations were measured by colormetric assay (Bio-Rad, Hercules, Calif.) according to the manufacturer's directions. cAMP values were normalized to protein for each sample individually.

increase in pCXCR4 [4]: 2.6+/−0.06 fold
Substance: CXCL12: chemokine ligand of CXCR4 (Peprotech)
decrease in proliferation (S+G2-M) [1]: 6% | increase in apoptosis (sub-G0) [1]: 38+/−8% | integrated area under the cAMP curve ([2]; 0.1 μg/ml CXCL12, 45-minute period): 1.96 | intracellular cAMP in Nf1−/− astrocytes relative to Nf1+/+ astrocytes ([2]; 0.1 μg/ml CXCL12, from areas under the curves): approximately 73% | integrated area under the cAMP curve [3]: 2.70 | intracellular cAMP, lower level of oscillation [3]: 40 % of baseline | cyclic AMP levels after CXCL12 [5]: rapidly declined | reduction in intracellular cAMP as compared to astrocytes (area under the curve) [5]: 45%
